This note sets out measurements from PubChem BioAssay (NCI).

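Each compound was tested at five concentrations against cells in 96-well plates for 48 hours. TGI: concentration producing complete growth inhibition.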

Among the test systems are ACHN renal; HCT-15 colon; HT29 colon; IGROV1 ovarian; LOX IMVI melanoma; MALME-3M melanoma; MCF7 breast; MDA-MB-231 breast; MDA-MB-435; NCI-H23 lung; OVCAR-4 ovarian; PC-3 prostate; SF-295 CNS; SK-OV-3 ovarian; U251 CNS; COLO 205 colon; HCT-116 colon; HOP-62 NSCLC; MOLT-4 leukemia.
What all share (assay): NCI tumour cell line growth inhibition, 48 h

As for `Cc1c(C(=O)O)c2cc3ccccc3cc2c(=O)n1C`, the TGI with ACHN renal, with HCT-15 colon, with HT29 colon, in the assay on IGROV1 ovarian, with LOX IMVI melanoma and in the assay with MALME-3M melanoma was more than 10 µM in each case. Besides, the TGI in the assay with MCF7 breast, in the assay on MDA-MB-231 breast, in the assay with MDA-MB-435, in the assay with NCI-H23 lung, with OVCAR-4 ovarian and with PC-3 prostate was more than 10 µM throughout. Further, the TGI in the assay on SF-295 CNS, in the assay on SK-OV-3 ovarian and in the assay on U251 CNS was more than 10 µM throughout.

For the molecule `Cc1cc2c(cc1C)[n+](=O)c(N1CCN(c3ccc([N+](=O)[O-])cc3)CC1)c(C#N)n2[O-]`, the TGI in the assay with ACHN renal is 50.8 µM; with COLO 205 colon, more than 100 µM; in the assay on HCT-116 colon, more than 100 µM; in the assay on HCT-15 colon it was more than 100 µM; in the assay on HOP-62 NSCLC, 31.7 µM; in the assay on HT29 colon, more than 100 µM. The TGI in the assay on IGROV1 ovarian was more than 100 µM; with LOX IMVI melanoma it was more than 100 µM; in the assay with MALME-3M melanoma, more than 100 µM; in the assay on MCF7 breast, more than 100 µM; in the assay with MDA-MB-231 breast it was 78.1 µM; with MDA-MB-435, more than 100 µM. Moreover, the TGI is more than 100 µM with NCI-H23 lung; more than 100 µM in the assay on OVCAR-4 ovarian; more than 100 µM with PC-3 prostate; 37.8 µM with SF-295 CNS; 30.9 µM in the assay with SK-OV-3 ovarian; 80.9 µM with U251 CNS.

`O=C(CCc1ccc(O)c(O)c1)NCCc1cc(OCc2ccccc2)cc(OCc2ccccc2)c1`: the TGI with ACHN renal is 19.3 µM; in the assay with COLO 205 colon, 14.6 µM; with HCT-116 colon, 31.6 µM; with HCT-15 colon, 11 µM; in the assay on HOP-62 NSCLC it was 37 µM; in the assay with HT29 colon it was 77.8 µM. In addition, the TGI was determined as 22.5 µM in the assay with IGROV1 ovarian; 34.5 µM in the assay with LOX IMVI melanoma; 32.2 µM in the assay on MCF7 breast; 48.8 µM in the assay with MDA-MB-231 breast; 60.8 µM in the assay with MDA-MB-435; 31 µM in the assay with NCI-H23 lung. Further, the TGI with PC-3 prostate is 29.8 µM; with SF-295 CNS it was 38.9 µM; with SK-OV-3 ovarian it was 31.3 µM; in the assay with U251 CNS, more than 100 µM.

On to `COP1(=O)NCc2ncccc2O1` (centres undefined), for which the TGI in the assay with ACHN renal, in the assay with COLO 205 colon, in the assay with HCT-116 colon, in the assay on HCT-15 colon, in the assay on HOP-62 NSCLC and with HT29 colon was more than 100 µM throughout. Also, the TGI with IGROV1 ovarian, with LOX IMVI melanoma, in the assay with MCF7 breast, in the assay on MDA-MB-231 breast, in the assay on MDA-MB-435 and in the assay on MOLT-4 leukemia was more than 100 µM throughout. The TGI in the assay on NCI-H23 lung, in the assay with OVCAR-4 ovarian, in the assay on PC-3 prostate, with SF-295 CNS and in the assay with U251 CNS was more than 100 µM in each case.

Regarding `Cc1nc2ccccc2c(=O)n1NC(=O)c1ccccc1O`, the TGI in the assay on ACHN renal, in the assay on COLO 205 colon, with HCT-116 colon, in the assay with HCT-15 colon, in the assay on HOP-62 NSCLC and in the assay on HT29 colon was more than 100 µM in each case. Also, the TGI in the assay on IGROV1 ovarian, in the assay with LOX IMVI melanoma, in the assay on MCF7 breast, in the assay on MDA-MB-231 breast, in the assay with MDA-MB-435 and with MOLT-4 leukemia was more than 100 µM each time. The TGI with NCI-H23 lung, with OVCAR-4 ovarian, in the assay on PC-3 prostate, in the assay on SF-295 CNS, in the assay on SK-OV-3 ovarian and in the assay on U251 CNS was more than 100 µM in each case.

In the case of `O=c1cc(-c2ccccc2)oc2ccc(Oc3nnnn3-c3ccccc3)cc12`, the TGI in the assay with ACHN renal is more than 100 µM; in the assay with COLO 205 colon, more than 100 µM; with HCT-116 colon, more than 100 µM; in the assay with HCT-15 colon, more than 100 µM; in the assay on HOP-62 NSCLC, more than 82.3 µM; with HT29 colon it was more than 100 µM. In addition, the TGI was more than 100 µM in the assay with IGROV1 ovarian; more than 100 µM in the assay with LOX IMVI melanoma; more than 100 µM with MALME-3M melanoma; more than 100 µM with MCF7 breast; more than 41.9 µM with MDA-MB-435; more than 100 µM in the assay on MOLT-4 leukemia. The TGI is more than 93.2 µM in the assay with NCI-H23 lung; more than 100 µM in the assay on OVCAR-4 ovarian; more than 100 µM in the assay on PC-3 prostate; more than 79.9 µM with SF-295 CNS; more than 100 µM in the assay on SK-OV-3 ovarian; more than 74.7 µM in the assay on U251 CNS.

Turning to `COc1ccc(C(C2C(=O)N(C)C(=O)N(C)C2=O)C(F)(F)C(=O)N(C)C)cc1` (centres undefined), the TGI with ACHN renal, in the assay with COLO 205 colon, in the assay on HCT-116 colon, in the assay on HCT-15 colon, in the assay on HOP-62 NSCLC and in the assay on LOX IMVI melanoma was more than 100 µM each time. The TGI in the assay with MALME-3M melanoma, in the assay on MCF7 breast, in the assay on MDA-MB-231 breast, in the assay on MDA-MB-435, in the assay with NCI-H23 lung and in the assay with OVCAR-4 ovarian was more than 100 µM each time. Besides, the TGI with PC-3 prostate, in the assay on SF-295 CNS, in the assay with SK-OV-3 ovarian and in the assay on U251 CNS was more than 100 µM throughout.

Take `O=C(N/N=C1/C(=O)c2c3ccccc3cc3cccc1c23)c1cccc(Cl)c1`: the TGI with ACHN renal, with COLO 205 colon, in the assay on HCT-116 colon, in the assay on HCT-15 colon, with HOP-62 NSCLC and in the assay on HT29 colon was more than 100 µM each time. The TGI in the assay with IGROV1 ovarian, with LOX IMVI melanoma, in the assay on MDA-MB-231 breast, in the assay on MDA-MB-435, in the assay on MOLT-4 leukemia and in the assay on NCI-H23 lung was more than 100 µM each time. The TGI in the assay on OVCAR-4 ovarian, in the assay on PC-3 prostate, in the assay with SK-OV-3 ovarian and with U251 CNS was more than 100 µM throughout.
